Measured values: US8263526B2, “Compositions of keratin hydrolysate and microbes for pest control applications” (priority 2006, dated 2012)
Where two headings read alike, the source gives them in different places.

What was measured:
Format in all cases: cell-based
[1] = tested on: blastospores of Paecilomyces fumosoroseus ARSEF 3581; assay: % germination assay (6-hr) of blastospores in surfactant solutions
Method: (§1) Blastospore suspensions (˜1×10^8 blastospores/ml) were prepared by adding 1.3 g of the dried blastospores of P. fumosoroseus formulate to 100 ml sterile deionized water. The spore suspension was stirred for 30 minutes, and then allowed to stand 1 minute to allow the diatomaceous earth to settle. Without disturbing the diatomaceous earth, 30 ml of the spore suspension was removed and transferred to a sterile bottle. The blastospore concentration of the suspension was measured using a hemacytometer.
A one ml aliquot of the previously described blastospore suspension was added to 49 ml of the foaming agents in a 250 ml baffled Erlenmeyer flask. The blastospore suspensions were incubated in a rotary shaker incubator (Innova 4000, New Brunswick) at 300 RPM and 28° C. for 6 hours. Blastospore germination was measured by microscopic observation of the germ tube formation. Four slides were prepared from the incubated blastospore suspension using separate pipets. Germ tube formation was measured for 100 blastospores on each slide. A total of 400 blastospores were counted from each flask.

[2] = tested on: blastospores of Paecilomyces fumosoroseus ARSEF 3581; assay: Viability assay, CFU spread plate after 1 hour exposure to surfactant; conditions: in words
Method: as §1
For these studies, 1 ml of the previously described blastospore suspension was added to 49 ml of the foaming agents and held for 1 hour at room temperature. After the one hour exposure period, colony forming units (cfu) were determined for blastospore suspensions using standard spread plating techniques. Appropriate dilutions of blastospore suspensions were spread on SDMA (Sabouraud dextrose maltose agar) plates, 10 g Bacto peptone, 20 g Difco dextrose, 20 g Sigma maltose, and 15 g Bacto agar per 1 L water. Three plates were used for each dilution. Plates were incubated at 28° C. for 2-3 days and CFUs counted.

[3] = tested on: blastospores of Paecilomyces fumosoroseus ARSEF 3581; assay: Conidia production assay on water agar in the dark; conditions: 2 weeks in the dark
Method: For the conidia production assay, 100 ul of the blastospore suspension was spread onto WA plates (Water Agar: 20 g/L water.) and incubated 2 weeks in the dark. Three plates were used for each treatment. The drop was spread with a sterile plastic spreader and incubated at 23° C. in the dark for 2 weeks. After two weeks, 5 ml of sterile water was added to each plate, and a sterile loop was used to release the conidia from the fungal growth. The spore suspension was drawn up with a pipet and the volume measured. The conidia concentration was measured using a hemacytometer. Our previous determination of the blastospore concentration in the suspension applied to the […] plates was used to calculate conidia production/blastospore.

## sodium alpha olefin sulfonate [Na alpha olefin sulfonate]
[1]
  % viability 6-hr germination: 0.0%

## Triton x-100
[1]; 6-hr germination assay, in words
  germination of blastospores relative to the water-only control: strongly inhibited
[2]
  cfu formation relative to the water control: comparable or better cfu formation than the water control
[3]; surfactant 0.5% (w/w)
  conidia production (conidia/blastospore): 95 conidia/blastospore
[3]; surfactant 1.0% (w/w)
  conidia production (conidia/blastospore): 57 conidia/blastospore
[3]; surfactant 2.0% (w/w)
  conidia production (conidia/blastospore): 27 conidia/blastospore

## CCCCCCCCCCCCCCCC[N+](C)(C)C.[Br-] [hexadecyl trimethylammonium Br, hexadecyl trimethylammonium bromide]
[1]; surfactant 0.5% (w/w), 6 hours, 28° C.
  % viability 6-hr germination: 0.0%

## sodium lauryl ether sulfate (2-mole) [Na Lauryl ether sulfate (2-mole)]
[1]
  % viability 6-hr germination: 0.0%
